Results: US20080078408A1, “URETHRAL CONDOMS AND LIQUID FEMALE CONDOMS” (priority 2005, published 2008)

Key:
[1] = system: sperms; assay: Spermicidal test: semen on a slide glass mixed with a drop of liquid, observed with an optical microscope; type: cell-based
From the text: The present inventor discovered a surprising fact for the first time that distilled water is an excellent spermicide.
EXPERIMENT 1: The fact that distilled water is an excellent spermicide was proven experimentally as follows: (1) One drop of semen was spread on a slide glass with a cotton swab and active movements of sperms were confirmed. (2) Upon mixing with a drop of distilled water, 100% of sperms stood still immediately. […] All sperms might be dead by explosive expansion of the sperm cell. While not wishing to be bound by any particular theory, the inventor believes that this is due to a lot of water smeared into the cell due to the difference in osmotic pressure between the cell and distilled water.
(3) Upon decreasing the viscosity by adding several drops of saline solution, the sperms regained their original activity.
EXPERIMENT 4: The fact that polymer solutions made from distilled water and water-soluble polymers exterminated sperms was verified experimentally as follows: (1) One drop of semen was spread on a slide glass with a cotton swab and active movements of sperms were confirmed. (2) Upon mixing with a drop of water-soluble polymer solution, all sperms came to a standstill without any movement in their heads or tails. […]

[2] = Physical blocking wall test: pigments and dye rubbed on coated, incised swine vaginal segments, then rinsed and scrubbed
From the text: EXPERIMENT 6: Two pigments whose particle size distributions correspond to sizes of STD-causing germs including HIV (diameter=125 nm) were chosen. The blue pigment (PIG-1) had the particle size distribution of 100-20,000 nm, while the violet pigment (PIG-2) had the particle size distribution of 30-500 nm. For the purpose of comparison, a blue dye ink (DYE) (molecular diameter=2.7 nm) was used as well. Instead of the human vagina, the swine vagina was used. […] Then, the vaginal segments in the left column were wetted with water, while those in the second, the third, the fourth and the fifth column were applied with corn syrup (SYRUP, 55% maltose), a composition made from polyvinyl alcohol (PVA-gel), a composition made from sodium carboxymethyl cellulose (SCMC-gel) and a composition made from hydroxyethyl cellulose (HEC-gel), respectively, as shown in FIG. 2B. After that, the blue pigment (PIG-1) was applied on the vaginal segments in the upper row, while the violet pigment (PIG-2) and the blue dye ink (DYE) were applied on the vaginal segments in the middle and the lower row, respectively, as shown in FIG. 2C. The pigments and the dye ink applied on the vaginal segments were rubbed 50 times violently with the index finger being pressed in an attempt to simulate the frictional movement of coitus. Thereafter that, they were scrubbed off and cleansed out with the vaginal scrubbing sponge of the present invention as shown in FIG. 6.

With O [distilled water] the “sperm activity upon later addition of saline solution” value ([1]; saline solution added after mixing with the liquid) was “failed to show any activity” and the “sperms stood still immediately upon mixing” value ([1]; semen on slide glass mixed with drop(s) of the liquid) was 100%.

With O [water] the “pigments left on incisions” value ([2]; incisions, after rinsing and scrubbing) was “remained heavily”, the “blue dye ink (molecular diameter 2.7 nm) left after being rinsed and scrubbed” value ([2]; intact vaginal surfaces and incisions) was “remained heavily” and the “pigments (PIG-1, PIG-2; 30-20,000 nm) left on vaginal segments after rinsing” value ([2]; intact vaginal surfaces and incisions, rubbed 50 times, rinsed with running water, then scrubbed) was “still remained”.
